Test results published in patent publication US8507408B2 (Dow Global Technologies LLC, priority 2010, dated 2013).
Values after ≈ are worked out from the molar mass of the structure shown. Where two headings read alike, the source gives them in different places. One block for each molecule: values may come before it.

Assays:
Cs + Ck + Nc = assay: Algal efficacy on dry paint film (Modified ASTM 5589); format: cell-based, Chlorella sp., Chlorella kessleri, and Nostoc commune; settings: for MIC: Nostoc commune, total actives in paint, read-out: Total conc (minimum inhibitory concentration chosen for SI)
Procedure: (§1) A single biocide or blend of biocides was post added into white acrylic latex paint free of biocides to give a maximum total active ingredient/s concentration tested. This paint was then diluted with a biocide free acrylic latex paint to give targeted concentrations for the testing. Depending on the type of biocide blends tested, the total biocides concentrations varies from 400 to 3300 ppm. After biocides addition or dilution, each sample was hand mixed for at least a minute until uniformity was achieved. Each of the paint samples as well as a control sample (containing no biocide) were used to prepare films on black plastic-vinyl chloride/acetate copolymer panels (Leneta Company, Mahwah, N.J.) using a 0.0762 mm (3 mil) bird bar applicator. The panels were thoroughly dried for at least 2 days avoiding direct exposure to sunlight. Square discs (0.5 inch^2; 1.27 cm^2) were cut out from each panel and were used as the substrate for fungal and algal efficacy tests. This sample size allowed for an agar border when the sample disc was placed into the well of the test plate. Each sample was tested in duplicate.
(§2) The appropriate media (BOLD'S 3N for Chlorophytes, BG-11 for Cyanobacteria, and PDA for fungi) were used to support microbial growth. The test plates were maintained at room temp (25° C.-26° C.), in a cycled light-dark environment, for four weeks for algae. Plates for fungal challenge tests were maintained at 30° C. for four weeks. At the end of the incubation period the samples were scored for percent area covered by visible microbial growth.
(§3) ASTM 5589 is a standard accelerated test method for determining resistance of various coatings (including paints) to algal defacement. To accommodate for high-throughput screening, this method was scaled down from petri plates to 6-well plates. A single coupon was placed with a pair of sterile forceps at the center of the agar plug (on top) with the painted surface facing upwards. Algal inoculums were prepared by mixing equal concentrations (approximately 1×10^6 cfu/ml) and equal volumes (depending on number of samples to be inoculated) of like growing organisms.
(§4) In this synergy study, three pool of mixed algae were prepared as the test inoculum, Gloeocapsa sp. and Oscillatoria sp. a mix of cyanobacteria grown on BG-11 media; Chlorella sp., Chlorella kessleri, and Nostoc commune are unicellular chlorphytes that were mixed and grown on Bold media; Trentepohlia aurea, Tretepohlia odorata, and Calotrix parientina are filamentous algae that were mixed and grown on Bold media.
(§5) Each well that contained a tested coupon was inoculated with 400 μl of organism mixture (approximately 1×10^6 cfu/ml) making sure that the whole surface (paint film as well as the agar surrounding it) was evenly covered. The plates were incubated at room temp (25° C.-26° C.) with cyclic exposure to light (OTT-Lite model #OTL4012P, 40 Watt, 26 KLumen) and dark phases, for a period of four weeks. The total area covered was evaluated at the end of each week according to percent area covered in 5% increments.
(§6) The SI is calculated based on F. C. Kull et.
(§7) NE=no end point at the concentration tested that will meet the percent inhibition criteria set in each SI calculation.

Cp + To + Ta = assay: as above; format: cell-based; settings: for Total conc (minimum inhibitory concentration chosen for SI): total actives in paint
Procedure: as §1, §2, §3, §4, §5, §6, §7

Gs + Os = assay: as above; format: cell-based, Gloeocapsa sp. and Oscillatoria sp.; settings: for MIC: total actives in paint, read-out: Total conc (minimum inhibitory concentration chosen for SI)
Procedure: as §1, §2, §3, §4, §5, §6, §7

Aa + Ap = assay: Fungal efficacy on dry paint film (Modified ASTM 5590); format: cell-based, Alternaria alternata, Aureobasidium pullulans; settings: four weeks
Procedure: as §1, §2
(§8) ASTM 5590 is a standard accelerated test method for determining resistance of various coatings (including paints) to fungal defacement. To accommodate for high-throughput screening, this method was scaled down from petri plates to 6-well plates. To set up the test, an agar plug was placed at the bottom of each well of the sterile 6-well plate. A single coupon was placed with a pair of sterile forceps at the center of the agar plug (on top) with the painted surface facing upwards. Fungal inoculums were prepared by mixing equal concentrations (approximately 1×10^6 cfu/ml) and equal volumes (depending on number of samples to be tested) of like growing organisms. For this synergy study, three pools of mixed fungi were prepared as the test inoculum. Cladosporium herbarum was mixed with Trichoderma viride, Aspergillus niger was mixed with Penicillium funiculosum and Alternaria alternata was mixed with Aureobasidium pullulans. Each well was inoculated with 400 microliter of organism mixture (approximately 1×10^6 cfu/ml) making sure that the whole surface (paint film as well as the agar surrounding it) was evenly covered. The plates were incubated at 30° C. in presence of moisture, for a period of four weeks. The total percent area covered was evaluated and recorded at the end of each week and recorded in increments of 5%.
as §6

An + Pf = assay: as above; format: cell-based, Aspergillus niger, Penicillium funiculosum; settings: for MIC: total actives in paint, read-out: Total conc (minimum inhibitory concentration chosen for SI)
Procedure: as §1, §2, §8, §6, §7

TV + Ch = assay: as above; format: cell-based, Trichoderma viride, Cladosporium herbarum; settings: four weeks
Procedure: as §1, §2, §8, §6

[1] = tested on: green algae (Selenastrum capricornutum); settings: cited from earlier work; for EbC50: median effective concentration for biomass
[2] = tested on: marine algae (Skeletonema costatum); settings: cited from earlier work
[3] = tested on: diatom (Navicula pelliculosa); settings: 7 day; cited from earlier work
[4] = tested on: blue-green algae (Anabaena flos-aquae); settings: 7 day; cited from earlier work
[5] = cited from earlier work
AaTv = assay: Fungal efficacy on dry paint film (Modified ASTM 5590); format: cell-based, Alternaria alternata, Trichoderma viride; settings: for % Inhibition: at the total conc; for MIC: total actives in paint, read-out: Total conc (minimum inhibitory concentration chosen for SI)
ApCh = assay: as above; format: cell-based, Aureobasidium pullulans, Cladosporium herbarum; settings: for % Inhibition: at the total conc; for MIC: total actives in paint, read-out: Total conc (minimum inhibitory concentration chosen for SI)
Procedure: as §1, §2
as §8, with “Each well was inoculated with 400 microliter of organism mixture (approximately 1×10^6 cfu/ml) making sure that the whole surface (paint film as well as the agar surrounding it) was evenly covered. The plates were incubated at 30° C. in presence of moisture, for a period of four weeks.” left out
The SI is calculated based on F. C. […]

[6] = Zinc Glyphosate with DCOIT study
[7] = Zinc Glyphosate with DCOIT study, at the total conc
[8] = Zinc Glyphosate with OIT study, at the total conc
[9] = Zinc Glyphosate with OIT study, NE=no end point at the concentration tested

Molecule: O=C(O)CNCP(=O)(O)O [Glyphosate, N-(phosphonomethyl)glycine]
% Inhibition (Cs + Ck + Nc; 750 ppm in paint, four weeks): 37.5%
% Inhibition (Cs + Ck + Nc; 1500 ppm in paint, four weeks): 60%
% Inhibition (Cs + Ck + Nc; 2500 ppm in paint, four weeks): 80%
% Inhibition (Cp + To + Ta; 750 ppm in paint, four weeks): 0%
% Inhibition (Cp + To + Ta; 1500 ppm in paint, four weeks): 10%
% Inhibition (Cp + To + Ta; 2500 ppm in paint, four weeks): 7.5%
% Inhibition (Gs + Os; 750 ppm in paint, four weeks): 15%
% Inhibition (Gs + Os; 1500 ppm in paint, four weeks): 72.5%
% Inhibition (Gs + Os; 2500 ppm in paint, four weeks): 90%
% Inhibition (Aa + Ap; 750 ppm in paint): 7.5%
% Inhibition (Aa + Ap; 1500 ppm in paint): 20%
% Inhibition (Aa + Ap; 2500 ppm in paint): 67.5%
% Inhibition (An + Pf; 750 ppm in paint, four weeks): 0%
% Inhibition (An + Pf; 1500 ppm in paint, four weeks): 5%
% Inhibition (An + Pf; 2500 ppm in paint, four weeks): 10%
% Inhibition (TV + Ch; 750 ppm in paint): 2.5%
% Inhibition (TV + Ch; 1500 ppm in paint): 50%
% Inhibition (TV + Ch; 2500 ppm in paint): 72.5%
EbC50 ([1]; 72 hr): 485 mg/L
ErC50 ([1]; 72 hr, median effective concentration for growth rate): 460 mg/L
EbC50 ([1]; 7 day): 13.8 mg/L
EC50 ([2]; 96 hr): 1.3 µg/mL (≈ 7.69 µM)
EC50 ([2]; 7 day): 0.64 µg/mL (≈ 3.79 µM)
EC50 [3]: 42 µg/mL (≈ 248 µM)
EC50 [4]: 15 µg/mL (≈ 88.7 µM)
solubility in water [5]: relatively high

MIC (An + Pf; [6]): 1150 µg/mL
MIC (An + Pf; Zinc Glyphosate with OIT study): 450 µg/mL
MIC (AaTv; [6]): 288 µg/mL (≈ 1020 µM)
MIC (AaTv; [9]): 450 µg/mL (≈ 1590 µM)
MIC (ApCh; [6]): 575 µg/mL
MIC (ApCh; [9]): 900 µg/mL
Molecule: CCCCCCCCn1sc(Cl)c(Cl)c1=O [DCOIT, 4,5-dichloro-2-n-octyl-4-isothiazolin-3-one]
MIC (Cs + Ck + Nc; [6]): 575 µg/mL
MIC (Cs + Ck + Nc; Zinc Glyphosate with OIT study): 900 µg/mL
% Inhibition (Cs + Ck + Nc; [7]): 20%
% Inhibition (Cs + Ck + Nc; [8]): 100%
% Inhibition (Cp + To + Ta; [7]): 80%
Total conc (minimum inhibitory concentration chosen for SI) (Cp + To + Ta; [6]): 575 ppm
% Inhibition (Cp + To + Ta; [8]): 80%
Total conc (minimum inhibitory concentration chosen for SI) (Cp + To + Ta; Zinc Glyphosate with OIT study): 1350 ppm
% Inhibition (Gs + Os; [7]): 60%
MIC (Gs + Os; [6]): 826 µg/mL
% Inhibition (Gs + Os; [8]): 80%
MIC (Gs + Os; [9]): 900 µg/mL
% Inhibition (An + Pf; [7]): 80%
% Inhibition (An + Pf; [8]): 50%
% Inhibition (AaTv; [6]): 40%
% Inhibition (AaTv; Zinc Glyphosate with OIT study): 100%
% Inhibition (ApCh; [6]): 40%
% Inhibition (ApCh; Zinc Glyphosate with OIT study): 40%

Molecule: Zinc Glyphosate
% Inhibition (Gs + Os; 750 ppm in paint, four weeks): 15%
% Inhibition (Gs + Os; 1500 ppm in paint, four weeks): 72.5%
% Inhibition (Gs + Os; 2500 ppm in paint, four weeks): 90%
% Inhibition (Aa + Ap; 1500 ppm in paint): 47.5%
% Inhibition (Aa + Ap; 2500 ppm in paint): 70%
% Inhibition (An + Pf; 750 ppm in paint, four weeks): 20%
% Inhibition (An + Pf; 1500 ppm in paint, four weeks): 27.5%
% Inhibition (An + Pf; 2500 ppm in paint, four weeks): 30%
% Inhibition (TV + Ch; 750 ppm in paint): 50%
% Inhibition (TV + Ch; 1500 ppm in paint): 75%
% Inhibition (TV + Ch; 2500 ppm in paint): 90%
